Target: T1, human CFTR (Homo sapiens, UniProt P13569)
T1 construct: expressed in transfected cells
Assay: Apical membrane Cl− current in CFTR-expressing FRT cells
Assay type: cell-based
Settings: for inhibition of CFTR after crofelemer pre-treatment: 50 μM crofelemer added first; for IC50 in absence versus presence of crofelemer: 50 μM crofelemer pre-added
Description: CFTR Cl^− current was measured in CFTR-expressing FRT cells in which the basolateral membrane was permeabilized by amphotericin B and a transepithelial Cl^− gradient was applied. Under these conditions, the measured current provides a direct quantitative measure of CFTR Cl^− conductance.
Measurements were done to investigate whether the Crofelemer inhibition potency depended on the CFTR activation mechanism. […] The reversibility of crofelemer inhibition of CFTR was investigated, since washout during secretory diarrhea is a concern in the use of a non-absorbable antisecretory agent. […] Following extensive washing, residual CFTR inhibition was determined from the current after re-stimulation by CPT-cAMP.
Comparisons of CFTR inhibition in the absence and presence of pre-added crofelemer tested the possibility that the site of action of crofelemer on CFTR might overlap with that of the small-molecule thiazolidinone and glycine hydrazide CFTR inhibitors.
FRT cells expressing human TMEM16A (cDNA provided by Dr. Luis Galietta, Gaslini Institute, Genoa, Italy) were generated similarly. FRT cells were cultured in F-12 Modified Coon's Medium (Sigma) supplemented with 10% fetal bovine serum (Hyclone), 2 mM glutamine, 100 units/ml penicillin, 100 μg/ml streptomycin, 350 μg/ml hygromycin and 500 μg/ml geneticin. […] T84 cells were cultured in DMEM/Ham's F-12 (1:1) medium containing 10% FBS, 100 units/ml penicillin and 100 μg/ml streptomycin.
FRT cells (stably expressing CFTR or TMEM16A) were cultured on Snapwell filters until confluence (transepithelial resistance >500 ohm.cm). Short-circuit current was measured in Ussing chambers (Vertical diffusion chamber; Costar) with Ringer's solution bathing the basolateral surface and half-Ringer's bathing the apical surface. Ringer's solution contained: 130 mM NaCl, 2.7 mM KCl, 1.5 mM KH2PO4, 1 mM CaCl2, 0.5 mM MgCl2, 10 mM Na-HEPES, 10 mM glucose, pH 7.3. Half-Ringer's solution was the same, except that 65 mM NaCl was replaced with Na gluconate, and CaCl2 was increased to 2 mM. […] Chambers were bubbled continuously with air. For T84 cells and bronchial epithelial cells, cells were bathed in symmetrical HCO3—buffered solution containing (in mM): 120 NaCl, 5 KCl, 1 MgCl2, 1 CaCl2, 10 D-glucose, 5 HEPES, and 25 NaHCO3 (pH 7.4), and aerated with 5% CO2 at 37° C. For the measurement of apical K+ conductance in T84 cells, NaHCO3 and NaCl were replaced with Na gluconate, and Na gluconate in basolateral solution was replaced with K gluconate and bubbled with air. The basolateral membrane was permeabilized with 20 μM amphotericin B. Short-circuit current was measured using a DVC-1000 voltage-clamp apparatus (World Precision Instruments).

T1 sequence (P13569 whole entry): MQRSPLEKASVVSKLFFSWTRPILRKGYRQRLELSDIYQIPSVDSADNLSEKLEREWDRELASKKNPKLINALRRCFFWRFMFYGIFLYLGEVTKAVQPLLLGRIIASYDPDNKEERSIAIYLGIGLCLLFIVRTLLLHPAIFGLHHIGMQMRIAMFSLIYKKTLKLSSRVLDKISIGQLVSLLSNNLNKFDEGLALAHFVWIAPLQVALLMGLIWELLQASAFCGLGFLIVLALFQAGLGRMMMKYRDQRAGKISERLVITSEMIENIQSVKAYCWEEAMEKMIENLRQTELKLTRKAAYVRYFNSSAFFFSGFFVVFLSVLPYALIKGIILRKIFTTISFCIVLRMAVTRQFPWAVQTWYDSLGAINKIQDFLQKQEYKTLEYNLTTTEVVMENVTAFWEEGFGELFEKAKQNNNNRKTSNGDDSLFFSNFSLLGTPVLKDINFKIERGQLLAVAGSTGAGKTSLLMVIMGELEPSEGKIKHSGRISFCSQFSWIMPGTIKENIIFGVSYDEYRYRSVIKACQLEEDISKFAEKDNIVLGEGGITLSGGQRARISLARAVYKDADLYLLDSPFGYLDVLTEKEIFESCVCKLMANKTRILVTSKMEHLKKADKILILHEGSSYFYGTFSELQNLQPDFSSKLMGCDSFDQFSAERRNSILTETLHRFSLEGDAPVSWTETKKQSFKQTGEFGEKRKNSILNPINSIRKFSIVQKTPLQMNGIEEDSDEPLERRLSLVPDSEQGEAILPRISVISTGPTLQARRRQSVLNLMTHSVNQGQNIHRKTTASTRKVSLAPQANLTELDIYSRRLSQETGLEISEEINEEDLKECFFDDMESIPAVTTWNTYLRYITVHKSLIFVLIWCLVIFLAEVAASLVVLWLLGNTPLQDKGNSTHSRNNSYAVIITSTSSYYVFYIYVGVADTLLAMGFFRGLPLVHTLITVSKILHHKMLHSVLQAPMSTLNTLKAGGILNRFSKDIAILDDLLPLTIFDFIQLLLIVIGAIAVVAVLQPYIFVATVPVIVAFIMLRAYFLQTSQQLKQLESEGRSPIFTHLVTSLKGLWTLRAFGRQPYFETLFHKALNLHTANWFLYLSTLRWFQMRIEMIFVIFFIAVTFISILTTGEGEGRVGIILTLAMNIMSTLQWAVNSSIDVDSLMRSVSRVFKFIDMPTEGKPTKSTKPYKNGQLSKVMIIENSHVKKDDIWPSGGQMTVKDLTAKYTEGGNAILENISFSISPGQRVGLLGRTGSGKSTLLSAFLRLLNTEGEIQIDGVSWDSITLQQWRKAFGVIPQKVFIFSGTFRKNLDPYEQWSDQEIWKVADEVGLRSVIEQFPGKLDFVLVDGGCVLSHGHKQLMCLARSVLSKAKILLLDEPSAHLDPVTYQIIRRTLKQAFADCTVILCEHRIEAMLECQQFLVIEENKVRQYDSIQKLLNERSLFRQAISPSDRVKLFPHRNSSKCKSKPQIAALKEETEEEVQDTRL

Row | Compound | inhibition of CFTR after crofelemer pre-treatment | IC50 in absence versus presence of crofelemer | IC50 (CFTR activated by CPT-cAMP, basolateral membrane permeabilized, Cl− gradient, inhibitor in apical solution, read-out: apparent IC50 for inhibition of CFTR Cl− current)
1 | CFTRinh-172 | ~100% | similar | –
2 | O=C(CNc1ccc2ccccc2c1)N/N=C/c1cc(Br)c(O)c(Br)c1O [GlyH-101] | ~100% | similar | ~8 µM

Reference: patent US20120202876A1, “METHODS OF TREATING DISEASES WITH PROANTHOCYANIDIN OLIGOMERS SUCH AS CROFELEMER” (NAPO PHARMACEUTICALS, INC., priority 2009, published 2012)
